Ends that are not written are not given here. Peptide text beside a SMILES is read from it.
Columns and labels:
DJA1 [1] = biological target: T1, DJA1 (Homo sapiens, UniProt P31689); assay: ELISA binding of DJA1 to immobilized biotinylated CFTR peptides; settings: 2 μM DJA1, absence of ATP, immobilized 15-mer; n ≥ 3
T1 construct: made in house
Protocol: (§1) HSC70, DJA1 and DJA2 were purified as His-tagged proteins, as described. HSC70 was also amplified by PCR with an N-terminal FLAG tag, inserted into pPROEXHTa (Invitrogen) and purified as described. HSC70 was stored in 100 mM KOAc, 20 mM HEPES-KOH pH 7.5, 5 mM MgOAC2 (buffer G), DJA1 and DJA2 in 500 mM NaCl, 20 mM HEPES-KOH pH 7.5, 5 mM MgOAC2 (buffer H). Avi-tagged CFTR NBD1 was purified as described.
(§2) The CFTR peptide library was designed as 15-mers with 10-residue overlaps covering the cytosolic sequences as in Fig. 1a and Supplemental Table S1. Synthetic peptides (Mimotopes, PepSet purity) contained an N-terminal biotin followed by linker sequence GSGS and the 15-mer sequence. […] Peptides were reconstituted in DMSO or water.
(§3) For peptide binding, streptavidin-coated black 96-well plates (Nunc Maxisorp, ThermoFisher) were pre-rinsed with PBS containing 0.05% Tween-20 (PBST), and 5 µM biotinylated peptides in 100 µl PBS were bound overnnight at 4 °C with agitation. Plates were washed with PBST and blocked with PBST containing 0.5% bovine serum albumin (BSA) for 1 h. After removal of blocking solution, 100 µl reactions containing chaperones at indicated concentrations were bound for 45 min at room temperature with agitation. HSC70 reactions were in buffer G containing 1 mM ATP, DJA1 and DJA2 reactions were in buffer H. For competition assays, chaperones and peptides were mixed at indicated concentrations immediately before the reactions were added to the plates. For detections, the plates were washed in PBST and 5 μM His-Probe-HRP conjugate (ThermoFisher) in 100 μL PBST added for 15 min with agitation. After washing in PBST, plates were developed using Amplex Red (ThermoFisher) according to manufacturer’s instructions, in a fluorescence plate reader (Tecan M1000).
(§4) Affinities were determined separately from binding curves and from competition curves. Data from binding of chaperones to immobilized peptides (Fig. 2a,b and Supplemental Fig. S2a–c) were fit to the equation 1/(1 − i) = (C/i)/Kd^B − b, where i is the relative saturation, C is the chaperone concentration (1 μM), Kd^B is the apparent dissociation constant from the binding data. In the plot of 1/(1 − i) against (C/i), the slope is 1/Kd^B, and −b is the intercept. […] In the plot of bi + (C/Kd^B)/i over D, the slope is 1/Kd^C, and e is the intercept. The amount of chaperone bound in the absence of competitor was set as i = 1.
(§5) Established statistical methods[71]–[73] were used to analyze the data for chaperone binding to the peptide library. First, biological and statistical outliers were identified with the Tukey method in two rounds, for biological and then statistical outliers. […] Binding data were represented as multiples of the standard deviations from the normal means. Binding in the presence of competitor peptides were shown as a fraction of binding in the absence of competitor, or the fraction competed calculated as 1 – fraction bound. Values were compared using a two-tailed unpaired Student’s t-test assuming unequal variance.

HSC70 and DJA2 = assay: Refolding of guanidine denatured luciferase by HSC70 and DJA2; type: biochemical; settings: 4 μM each HSC70 and DJA2, 100 nM luciferase, 100 μM peptide (25-fold excess), 60 min, % of control without peptide; n = 3
Protocol: Refolding of guanidine denatured luciferase with HSC70 and DJA2 was as described. […] To monitor refolding, luciferase activity was measured in a luminometer (Berthold Sirius) with the luciferase assay kit (Promega). For co-IPs, 20 μL reaction aliquots were stopped by dilution at 4 °C to 500 μL with buffer containing 0.1% Triton X-100, 0.2% BSA and 0.04 mg/mL apyrase (Sigma). Reactions were incubated with FLAG-M2 magnetic beads (Sigma) for 1 h at 4 °C with agitation, then beads were isolated and washed with buffer G containing 0.1% Triton X-100, and eluted with 40 μL of 1 μg/mL FLAG peptide in the same buffer. Samples were analyzed on Western blots detected with antibodies against luciferase (Sigma, L2164) and the FLAG-M2 tag (Sigma, F1804).

HSC70 [2] = biological target: T2, HSC70 (Homo sapiens, UniProt P11142); assay: ELISA binding of HSC70 to immobilized biotinylated CFTR peptides
T2 construct: made in house
Protocol: as §1, §2, §3, §4, §5

Flag-tagged HSC70 = assay: Co-immunoprecipitation of luciferase with Flag-tagged HSC70 during refolding; type: biochemical; settings: refolding reactions stopped at 0 or 15 min, FLAG IP, Western blot, Fig. 4d
Protocol: as §1
Refolding of guanidine denatured luciferase with HSC70 and DJA2 was as described. 100 µl reactions contained 4 μM each of HSC70 and DJA2, 2 mM ATP and […] in buffer G, with the indicated concentrations of peptides. To monitor refolding, luciferase activity was measured in a luminometer (Berthold Sirius) with the luciferase assay kit (Promega). For co-IPs, 20 μL reaction aliquots were stopped by dilution at 4 °C to 500 μL with buffer containing 0.1% Triton X-100, 0.2% BSA and 0.04 mg/mL apyrase (Sigma). Reactions were incubated with FLAG-M2 magnetic beads (Sigma) for 1 h at 4 °C with agitation, then beads were isolated and washed with buffer G containing 0.1% Triton X-100, and eluted with 40 μL of 1 μg/mL FLAG peptide in the same buffer. Samples were analyzed on Western blots detected with antibodies against luciferase (Sigma, L2164) and the FLAG-M2 tag (Sigma, F1804).

HSC70 [3] = biological target: T2, HSC70; assay: ELISA binding of HSC70 to immobilized CFTR NBD1 and competition by soluble peptides; settings: 1 μM HSC70, with ATP, soluble peptide, Fig. 4a; n = 5
Protocol: as §1
For NBD1 binding, 100 nM of strep-tagged NBD1 in 100 µl of 150 mM NaCl, 50 mM Na2HPO4 pH 7.5, 1 mM ATP, and 40 µM DTT (buffer N), was bound to streptavidin plates for 1 hour at 4 °C with agitation. Plates were washed with PBST and incubated in buffer N at 30 °C in a water bath for 5 min. Then, plates were blocked in PBST containing 0.5% BSA, followed by the addition of HSC70 binding reactions, and detection as above.

DJA2 [4] = biological target: T3, DJA2 (Homo sapiens, UniProt O60884); assay: ELISA binding of DJA2 to immobilized biotinylated CFTR peptides; settings: 2 μM DJA2, absence of ATP, immobilized 15-mer; n ≥ 3
T3 construct: made in house
Protocol: as §1, §2, §3, §4, §5

DJA2 [5] = biological target: T3, DJA2; assay: Competition ELISA: soluble peptide vs DJA2 binding to immobilized 1097-L; settings: for DJA2 binding site by competition screen (in words): 1 μM DJA2, 100 μM soluble peptide, Fig. 3c/5, cutoff twice SD of 733-L, n ≥ 4; for competition of DJA2 binding to immobilized 1097-L (in words): 1 μM DJA2, soluble peptide up to 100 μM
Protocol: as §1, §2, §3, §4, §5

DJA1 [6] = biological target: T1, DJA1; assay: Competition ELISA: soluble peptide vs DJA1 binding to immobilized 1097-L; settings: for DJA1 binding site by competition screen (in words): 1 μM DJA1, 100 μM soluble peptide, Fig. 3c/5, cutoff twice SD of 733-L, n ≥ 4; for competition of DJA1 binding to immobilized 1097-L (in words): 1 μM DJA1, soluble peptide up to 100 μM
Protocol: as §1, §2, §3, §4, §5

HSC70 [7] = biological target: T2, HSC70; assay: Competition ELISA: soluble peptide vs HSC70 binding to immobilized 1097-L; settings: for HSC70 binding site by competition screen (in words): 1 μM HSC70, 100 μM soluble peptide, Fig. 3c/5, cutoff twice SD of 733-L, n ≥ 4; for competition of HSC70 binding to immobilized 1097-L (in words): 1 μM HSC70, soluble peptide up to 100 μM; for Kd: read-out: Kd from competition curves, HSC70
Protocol: as §1, §2, §3, §4, §5

DJA2 [8] = biological target: T3, DJA2; assay: Fluorescent peptide binding, DJA2; settings: 0.5 μM FAM-1092-S, buffer H, 45 min, ex 492 nm / em 520 nm, one site total binding fit, n ≥ 8
Excerpt: (§6) The CFTR peptide library was designed as 15-mers with 10-residue overlaps covering the cytosolic sequences as in Fig. 1a and Supplemental Table S1. Synthetic peptides (Mimotopes, PepSet purity) contained an N-terminal biotin followed by linker sequence GSGS and the 15-mer sequence. Soluble peptides (Lifetein) were synthesized unmodified at >85% purity, sequences in Supplemental Table S1 and S2. Fluorescent peptide 1092-S was fused to the linker sequence SG and an N-terminal 6-carboxyfluorescein (FAM) label. Peptides were reconstituted in DMSO or water.
(§7) 0.5 μM FAM-1092-S was incubated with chaperones at the indicated concentrations for 45 min. HSC70 was incubated in buffer G, DJA1 and DJA2 were incubated in buffer H. The fluorescence signal for each condition was measured at 492 nm wavelength excitation, 520 nm wavelength emission, and 5 nm slit width, using a Horiba FluoroMax spectrofluorometer. Data were collected with the FluorEssence software (Horiba). Dissociation constants (Kd) were determined by nonlinear regression fit of the averaged data to a one site – total binding model, using GraphPad Prism 8. The 95% confidence intervals and R^2 correlation coefficients are reported (Supplemental Table S3).

DJA1 [9] = biological target: T1, DJA1; assay: Fluorescent peptide binding, DJA1; settings: 0.5 μM FAM-1092-S, buffer H, 45 min, ex 492 nm / em 520 nm, one site total binding fit, n ≥ 8
Excerpt: as §6, §7

HSC70 [10] = biological target: T2, HSC70; assay: Fluorescent peptide binding, HSC70; settings: 0.5 μM FAM-1092-S, buffer G, 45 min, ex 492 nm / em 520 nm, one site total binding fit, n ≥ 8
Excerpt: as §6, §7

T2 sequence (P11142 whole entry): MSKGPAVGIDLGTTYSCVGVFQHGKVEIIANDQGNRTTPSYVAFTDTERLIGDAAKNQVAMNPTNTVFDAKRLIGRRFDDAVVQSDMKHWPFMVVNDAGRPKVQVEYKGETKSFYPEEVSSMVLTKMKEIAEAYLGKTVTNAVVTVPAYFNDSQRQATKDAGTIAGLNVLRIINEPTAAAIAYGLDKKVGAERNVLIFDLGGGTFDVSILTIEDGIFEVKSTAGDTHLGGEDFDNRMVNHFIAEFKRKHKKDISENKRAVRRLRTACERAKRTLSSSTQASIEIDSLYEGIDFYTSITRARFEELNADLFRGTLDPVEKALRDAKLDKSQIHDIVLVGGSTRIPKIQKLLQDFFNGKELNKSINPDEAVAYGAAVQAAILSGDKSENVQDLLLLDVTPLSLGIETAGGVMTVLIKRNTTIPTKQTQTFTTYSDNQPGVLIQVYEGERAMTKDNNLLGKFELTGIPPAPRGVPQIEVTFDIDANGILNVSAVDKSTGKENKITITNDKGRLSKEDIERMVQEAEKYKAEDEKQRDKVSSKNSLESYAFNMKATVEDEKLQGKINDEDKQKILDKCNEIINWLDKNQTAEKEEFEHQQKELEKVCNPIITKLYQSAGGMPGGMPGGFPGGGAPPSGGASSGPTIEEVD
T3 sequence (O60884 whole entry): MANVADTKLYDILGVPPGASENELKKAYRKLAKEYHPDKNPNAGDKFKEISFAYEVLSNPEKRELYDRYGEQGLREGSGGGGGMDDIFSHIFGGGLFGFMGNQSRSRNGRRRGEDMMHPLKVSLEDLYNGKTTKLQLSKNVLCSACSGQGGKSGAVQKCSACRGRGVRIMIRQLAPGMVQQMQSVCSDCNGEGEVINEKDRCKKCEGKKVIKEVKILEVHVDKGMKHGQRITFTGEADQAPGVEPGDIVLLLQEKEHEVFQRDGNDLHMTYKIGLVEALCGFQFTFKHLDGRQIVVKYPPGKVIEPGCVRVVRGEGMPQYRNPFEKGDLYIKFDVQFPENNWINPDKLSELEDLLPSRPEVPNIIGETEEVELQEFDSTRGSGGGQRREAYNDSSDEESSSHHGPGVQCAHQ

Row | Molecule | effect on luciferase refolding (in words) (HSC70 and DJA2) | competition of HSC70 binding to immobilized NBD1 (in words) (HSC70 [3]) | DJA2 binding site by competition screen (in words) (DJA2 [5]) | competition of DJA2 binding to immobilized 1097-L (in words) (DJA2 [5]) | DJA1 binding site by competition screen (in words) (DJA1 [6]) | competition of DJA1 binding to immobilized 1097-L (in words) (DJA1 [6]) | HSC70 binding site by competition screen (in words) (HSC70 [7]) | competition of HSC70 binding to immobilized 1097-L (in words) (HSC70 [7]) | Kd (HSC70 [7]) [nM] | also measured
1 | 733-L: R 15-mer 726-740, negative control (EDSDEPLERRLSLVP; UniProt P13569 726-740, looked up, fragment) [Peptide 733-L] | no effect | did not | – | – | – | – | – | – | – | binding in peptide library screen, DJA1 (in words) (DJA1 [1]): low binding; binding in peptide library screen, HSC70 (in words) (HSC70 [2]; 2 μM HSC70, with ATP, immobilized 15-mer, n ≥ 3): low binding; titration binding / saturation, HSC70 (in words) (HSC70 [2]; HSC70 titrated to 1.5 μM on immobilized peptide, Fig. 2a, S2a, n ≥ 6): low; luciferase bound to HSC70 in presence of peptide (in words) (Flag-tagged HSC70): luciferase was substantially bound; binding in peptide library screen, DJA2 (in words) (DJA2 [4]): low binding
2 | CC[C@H](C)[C@H](NC(=O)[C@@H](NC(=O)[C@@H](NC(=O)[C@H](CS)NC(=O)[C@@H](N)CC(=O)O)[C@@H](C)O)C(C)C)C(=O)N[C@@H](CC(C)C)C(=O)N[C@@H](CS)C(=O)N[C@@H](CCC(=O)O)C(=O)N[C@@H](Cc1c[nH]cn1)C(=O)O [Peptide 1398-S] (H-DCTVILCEH-OH; N-terminus and C-terminus assumed) | inhibited refolding | effective competitors | bound by HSC70, DJA2 and DJA1 | competed | bound by HSC70, DJA2 and DJA1 | competed | bound by HSC70, DJA2 and DJA1 | competed | – | –
3 | DKILILHEG [Peptide 618-S] | partial but still significant | competed the majority of HSC70 | bound by HSC70, DJA2 and DJA1 | – | bound by HSC70, DJA2 and DJA1 | – | bound by HSC70, DJA2 and DJA1 | competed HSC70 well | – | –
4 | NWFLYLSTL [Peptide 1092-S] | inhibited refolding | effective competitors | – | competed all three chaperones | one of the few sites also bound by DJA1 | competed all three chaperones | – | competed all three chaperones | 1260 | Kd (DJA2 [5]): 2630 nM; Kd (DJA1 [6]; read-out: Kd from competition curves, DJA1): 5.47 µM; Kd from fluorescence binding, DJA2 (DJA2 [8]): single micromolar range; Kd (DJA2 [8]; read-out: Kd from fluorescence binding, DJA2): 8.46 µM; Kd from fluorescence binding, DJA1 (DJA1 [9]): single micromolar range; Kd (DJA1 [9]; read-out: Kd from fluorescence binding, DJA1): 3.97 µM; Kd from fluorescence binding, HSC70 (HSC70 [10]): single micromolar range; Kd (HSC70 [10]; read-out: Kd from fluorescence binding, HSC70): 6.17 µM
5 | QKVFIFSGTF [Peptide 1295-S] | partial but still significant | effective competitors | HSC70-DJA2 sites | – | – | – | HSC70-DJA2 sites | competed | 1260 | –
6 | TSLLMVIMG [Peptide 469-S] | inhibited refolding | competed the majority of HSC70 | HSC70-DJA2 sites | competed | – | – | HSC70-DJA2 sites | competed HSC70 well | – | –

From paper PMC7060200, “Selective Binding of HSC70 and its Co-Chaperones to Structural Hotspots on CFTR” (Scientific Reports, 2020)
